Experimental data as given in PubChem BioAssay AID977630 (Broad Institute, 2014).
Inconclusive results are not listed. Calls of active or inactive are those of the source.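 How the source made its calls: active means Normal-ribosome green reporter loss at least double humanized-ribosome red reporter loss, with overall culture growth inhibition under a set limit; inconclusive means no clear call, values can overlap the other calls; inactive means the rest.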

System: E. coli wild-type GFP growth, mixed culture, 24 h
Assay: E. coli growth inhibition, wild-type GFP versus H38 humanized RFP strain – H38 mutant RFP vs wild-type GFP, cherry-pick, dose response (AID 977630)
[1] = E. coli mixed culture total OD600 growth, 24 h

Compound | AC50 | AC50 [1]
Cc1cc(C(=O)NCCC2=CCCCC2)ccc1[N+](=O)[O-] | > 100 µM (inactive) | –
Cc1ccc(-c2nc(CN3CCCCC3c3cccc(F)c3)c(C)o2)o1 (centres undefined) | > 100 µM (inactive) | –
O=C(c1cccs1)c1c[nH]cc1-c1ccccc1 | – | > 100 µM
Cc1noc(C)c1COc1cccc(C(=O)N2CCc3ccccc32)c1 | > 100 µM (inactive) | –
CCOCCCNC(=O)C(NC(=O)c1ccccc1O)c1ccc(C)cc1 (centres undefined) | > 100 µM (inactive) | > 100 µM
O=C1c2ccccc2C(c2nnnn2C2CCCCC2)N1CCc1ccc(O)cc1 (centres undefined) | > 100 µM (inactive) | > 100 µM
Cc1ccc(NC(=O)c2ccc([N+](=O)[O-])o2)c(C)c1 | > 100 µM (inactive) | –
O=C(Nc1ccccc1N1CCN(C(=O)c2ccccc2)CC1)c1ccc([N+](=O)[O-])o1 | > 100 µM (inactive) | –
CCOc1ccccc1NC(=O)c1cc(SC)ccc1Cl | > 100 µM (inactive) | –
CC1(C)CC2CC(C)(CN2c2ncnc3ccccc23)C1 (centres undefined) | > 100 µM (inactive) | > 100 µM
CCn1c(-c2ccccc2Cl)nn(CC(=O)Nc2ccccc2OC)c1=S | > 100 µM (inactive) | > 100 µM
CC(=O)N1CCOc2ccc(S(=O)(=O)N(C)c3ccc(C)cc3)cc21 | > 100 µM (inactive) | –
O=C(COc1ccccc1Cl)Nc1nc(-c2ccncc2)cs1 | > 100 µM (inactive) | –
O=S1(=O)c2ccc(Br)cc2OCCC2CCCCN21 (centres undefined) | > 100 µM (inactive) | > 100 µM
COC(=O)c1sc(C(C)(C)C)cc1CS(=O)(=O)c1ccc(Cl)cc1 | > 100 µM (inactive) | –
CCOc1ncccc1C(=O)OCC(=O)NCCCc1ccccc1 | > 100 µM (inactive) | –
O=C(Nc1ccc(Br)cc1)c1cccnc1N1CCCCC1 | – | > 100 µM
COc1cc(NC(=O)COC(=O)CC(C)(C)C)c(C)cc1[N+](=O)[O-] | > 100 µM (inactive) | > 100 µM
COc1ccc(N(C)S(=O)(=O)c2cccc(C(=O)NC3CCCCC3C)c2)cc1 (centres undefined) | > 100 µM (inactive) | –
COc1ccccc1Cc1c(-c2ccc(F)cc2)nc2ccc(Br)cn12 | > 100 µM (inactive) | –
CSc1ncc(CN2CCCC(C(=O)c3cccc(Cl)c3)C2)cn1 (centres undefined) | > 100 µM (inactive) | > 100 µM
Cc1nonc1C1CCCN1C(=O)c1cc(COc2ccc(F)cc2F)on1 (centres undefined) | > 100 µM (inactive) | –

Compound | AC50 | AC50 [1]
O=C(NCc1ccc2c(c1)OCO2)C1CCCN1S(=O)(=O)c1ccc(Cl)cc1 (centres undefined) | > 100 µM (inactive) | –
CCS(=O)(=O)N1CCN(c2ccnc3cc(Cl)ccc23)CC1 | > 100 µM (inactive) | > 100 µM
O=C(O)c1ccc(Oc2ccc([N+](=O)[O-])cc2)c([N+](=O)[O-])c1 | > 100 µM (inactive) | –
O=C(CCCOc1ccc(Cl)cc1Cl)Nc1ccccc1C(=O)O | > 100 µM (inactive) | > 100 µM
Cc1ccc(NC(=O)c2ccc([N+](=O)[O-])s2)cc1S(=O)(=O)N1CCOCC1 | > 100 µM (inactive) | > 100 µM
Cc1ccc(-c2nc3ccc(NS(=O)(=O)c4ccccc4)cc3[nH]2)o1 | > 100 µM (inactive) | 33.6 µM
COC(=O)c1cc(C(=O)c2c(C)cc3ccccn23)cc([N+](=O)[O-])c1 | – | > 100 µM
O=C(Nc1cccc(Oc2ccc3c(c2)C(=O)NC3=O)c1)c1cccs1 | > 100 µM (inactive) | –
CS(=O)(=O)c1ccc(Cl)c(NC(=O)CSc2nncn2-c2ccccc2)c1 | > 100 µM (inactive) | –
Cc1nn2c(NCc3ccccn3)cc(C(C)C)nc2c1-c1ccccc1 | > 100 µM (inactive) | –
Cc1cc(C(=O)OCC(=O)Nc2cccc(S(N)(=O)=O)c2)c2ccccc2n1 | > 100 µM (inactive) | > 100 µM
CC(C)(CC(=O)O)CC(=O)NCc1c(Cl)cccc1Sc1ccc(Cl)cc1 | > 100 µM (inactive) | –
CSc1nc2nc3c(cc2c(=O)n1-c1ccccc1C)CCCC3 | > 100 µM (inactive) | > 100 µM
CC(=O)Nc1ccc(CNc2nc(NCCN(C)C)nc3cc(-c4ccccc4)sc23)cc1 | > 100 µM (inactive) | –
COc1ccc(NC(=O)c2cccs2)cc1C(=O)N1CCN(c2ccccc2)CC1 | > 100 µM (inactive) | –
COc1cccc(NC(=O)CSc2nc3c(sc4ccccc43)c(=O)n2CCN(C)C)c1 | > 100 µM (inactive) | –
FC(F)(F)c1ccc(Cl)c(-n2c(Cc3cccs3)n[nH]c2=S)c1 | > 100 µM (inactive) | –
COCC(C)NC(=O)c1nn(Cc2ccccc2)c(=O)c2ccccc12 (centres undefined) | > 100 µM (inactive) | > 100 µM
CCCc1c(C(=O)Nc2ccc(OC)cc2)cnn1-c1ccccc1 | > 100 µM (inactive) | > 100 µM
Cc1ccccc1-n1c([C@@H]2C[C@H]2c2ccccc2)n[nH]c1=S | > 100 µM (inactive) | –
Cc1ccsc1C(=O)OCC(=O)N1CCc2ccccc2C1 | > 100 µM (inactive) | –
CC(=O)N1CCN(c2nc(-c3cccs3)nc3ccccc23)CC1 | > 100 µM (inactive) | –
